From patent US9169260B2 (MERCK SHARP & DOHME CORP., priority 2011, dated 2015)

Target: GST tagged IRAK-4 (Homo sapiens (Human), UniProt Q9NWZ3)
Assay: IRAK-4 Kinase Assay (IMAP fluorescence polarization)
Type: biochemical
Settings: 100 μM ATP, 30 minutes at 25° C.
How it was run: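 Activity was read by IMAP fluorescence polarization, where phosphopeptide binding to M(III) nanoparticles raises FP. The 30-minute, 25° C reaction used 100 μM ATP, 100 nM RP7030 substrate and 0.5 nM GST-IRAK-4 in pH 7.2 Tris buffer with MgCl2, DTT and Tween 20.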

Chain of GST tagged IRAK-4 (Q9NWZ3 whole entry): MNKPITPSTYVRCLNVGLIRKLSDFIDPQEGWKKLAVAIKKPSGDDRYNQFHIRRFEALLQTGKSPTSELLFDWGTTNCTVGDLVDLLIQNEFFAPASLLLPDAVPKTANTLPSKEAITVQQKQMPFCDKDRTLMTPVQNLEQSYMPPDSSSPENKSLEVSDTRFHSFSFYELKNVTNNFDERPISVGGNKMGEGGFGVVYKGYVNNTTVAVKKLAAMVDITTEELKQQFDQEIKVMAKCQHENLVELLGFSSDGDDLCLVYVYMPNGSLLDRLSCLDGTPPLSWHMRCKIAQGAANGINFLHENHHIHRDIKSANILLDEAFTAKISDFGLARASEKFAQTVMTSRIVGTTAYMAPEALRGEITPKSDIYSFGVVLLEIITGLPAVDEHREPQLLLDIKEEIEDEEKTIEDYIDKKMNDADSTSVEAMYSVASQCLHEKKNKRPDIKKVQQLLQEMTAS

Row | SMILES | IC50 [µM] | IC50 (μM) [µM]
1 | Cc1ccc(-n2nc(C3CCN(Cc4ccccc4)CC3)cc2NC(=O)c2cnn3cccnc23)cc1 [Example 218, N-[3-(1-benzylpiperidin-4-yl)-1-(4-methylphenyl)-1H-pyrazol-5-yl]pyrazolo[1,5-a]pyrimidine-3-carboxamide] | > 0.1 | –
2 | Cc1ccc(-n2nc(C3CCN(S(=O)(=O)c4cn(C)c(C)n4)CC3)cc2NC(=O)c2cnn3cccnc23)cc1 [Example 386, N-[3-{1-[(1,2-dimethyl-1H-imidazol-4-yl)sulfonyl]piperidin-4-yl}-1-(4-methylphenyl)-1H-pyrazol-5-yl]pyrazolo[1,5-a]pyrimidine-3-carboxamide] | – | < 1
3 | Cc1ccc(-n2nc(C3CCN(C4CN(C(=O)OCCF)C4)CC3)cc2NC(=O)c2cnn3cccnc23)cc1 [Example 241, 2-fluoroethyl 3-(4-{1-(4-methylphenyl)-5-[(pyrazolo[1,5-a]pyrimidin-3-ylcarbonyl)amino]-1H-pyrazol-3-yl}piperidin-1-yl)azetidine-1-carboxylate] | – | < 1
4 | Cc1ccc(-n2nc(C3CCN(S(=O)(=O)c4ccc5ncsc5c4)CC3)cc2NC(=O)c2cnn3cccnc23)cc1 [Example 384, N-{3-[1-(1,3-benzothiazol-6-ylsulfonyl)piperidin-4-yl]-1-(4-methylphenyl)-1H-pyrazol-5-yl}pyrazolo[1,5-a]pyrimidine-3-carboxamide] | – | < 1
5 | COC(=O)N1CCC(c2cc(NC(=O)c3cnn4cccnc34)n(-c3ccc(OC)cc3)n2)CC1 [Example 32, methyl 4-(1-(4-methoxyphenyl)-5-(pyrazolo[1,5-a]pyrimidine-3-carboxamido)-1H-pyrazol-3-yl)piperidine-1-carboxylate] | – | < 1
6 | Cc1ccc(-n2nc(-c3ccc(CN4CCN(C)CC4)cc3)cc2NC(=O)c2cnn3cccnc23)cc1 [Example 144] | < 0.1 | –
7 | Cc1ccc(-n2nc(-c3ccc(S(C)(=O)=O)cc3C(F)(F)F)cc2NC(=O)c2cnn3cccnc23)cc1 [Example 338, N-{1-(4-methylphenyl)-3-[4-(methylsulfonyl)-2-(trifluoromethyl)phenyl]-1H-pyrazol-5-yl}pyrazolo[1,5-a]pyrimidine-3-carboxamide] | 0.1 | –
8 | O=C(Nc1cc(C2CCNCC2)nn1-c1ccc(OC(F)(F)F)cc1)c1cnn2cccnc12 [Example 13, N-(3-(piperidin-4-yl)-1-(4-(trifluoromethoxy)phenyl)-1H-pyrazol-5-yl)pyrazolo[1,5-a]pyrimidine-3-carboxamide] | – | < 1
9 | Cc1ccc(-n2nc(-c3ccc(S(=O)(=O)N(C)C)cc3)cc2NC(=O)c2cnn3cccnc23)cc1 [Example 353, N-{3-[4-(dimethylsulfamoyl)phenyl]-1-(4-methylphenyl)-1H-pyrazol-5-yl}pyrazolo[1,5-a]pyrimidine-3-carboxamide] | < 0.1 | –
10 | O=C(Nc1cc(C2CNC2)nn1-c1ccc(C2CC2)cc1F)c1cnn2cccnc12 [Example 87, N-(3-(azetidin-3-yl)-1-(4-cyclopropyl-2-fluorophenyl)-1H-pyrazol-5-yl)pyrazolo[1,5-a]pyrimidine-3-carboxamide] | < 0.1 | –
11 | COC(=O)N1CCC(c2cc(NC(=O)c3cnn4cc(Br)cnc34)n(-c3ccc(C)cc3)n2)CC1 [Example 118, methyl 4-(5-(6-bromopyrazolo[1,5-a]pyrimidine-3-carboxamido)-1-(p-tolyl)-1H-pyrazol-3-yl)piperidine-1-carboxylate] | < 0.1 | –
12 | Cc1ccc(-n2nc(C3CCN(C(=O)CO)CC3)cc2NC(=O)c2cnn3cc(Br)cnc23)cc1 [Example 112, 6-bromo-N-(3-(1-(2-hydroxyacetyl)piperidin-4-yl)-1-(p-tolyl)-1H-pyrazol-5-yl)pyrazolo[1,5-a]pyrimidine-3-carboxamide] | – | < 1
13 | Cc1ccc(-n2nc(C3CCN(C4CC(C#N)C4)CC3)cc2NC(=O)c2cnn3cccnc23)cc1 (centres unmarked) [Example 258, N-{3-[1-(3-cyanocyclobutyl)piperidin-4-yl]-1-(4-methylphenyl)-1H-pyrazol-5-yl}pyrazolo[1,5-a]pyrimidine-3-carboxamide] | < 0.1 | –
14 | CCS(=O)(=O)N1CC(N2CCC(c3cc(NC(=O)c4cnn5cccnc45)n(-c4ccc(C)cc4)n3)CC2)C1 [Example 243, N-[3-{1-[1-(ethylsulfonyl)azetidin-3-yl]piperidin-4-yl}-1-(4-methylphenyl)-1H-pyrazol-5-yl]pyrazolo[1,5-a]pyrimidine-3-carboxamide] | – | < 1
15 | Cc1cnc(-n2nc(C3CCN(S(=O)(=O)C4CC4)CC3)cc2NC(=O)c2cnn3cccnc23)nc1 [Example 171, N-(3-(1-(cyclopropylsulfonyl)piperidin-4-yl)-1-(5-methylpyrimidin-2-yl)-1H-pyrazol-5-yl)pyrazolo[1,5-a]pyrimidine-3-carboxamide] | – | < 1
16 | Cc1ccc(-n2nc(C3CCN(S(=O)(=O)CCC(F)(F)F)CC3)cc2NC(=O)c2cnn3cccnc23)cc1 [Example 363, N-[1-(4-methylphenyl)-3-{1-[(3,3,3-trifluoropropyl)sulfonyl]piperidin-4-yl}-1H-pyrazol-5-yl]pyrazolo[1,5-a]pyrimidine-3-carboxamide] | – | < 1
17 | CNS(=O)(=O)c1ccc(-c2cc(NC(=O)c3cnn4cc(C5CC5)cnc34)n(-c3ccc(C)cn3)n2)cc1 [Example 195, 6-cyclopropyl-N-(1-(5-methylpyridin-2-yl)-3-(4-(N-methylsulfamoyl)phenyl)-1H-pyrazol-5-yl)pyrazolo[1,5-a]pyrimidine-3-carboxamide] | – | < 1

More lines, now with the values ahead:

Row | IC50 [µM] | IC50 (μM) [µM] | SMILES
18 | < 0.1 | – | Cc1ccc(-n2nc(C3CCN(C4CC[C@@H](C)C4)CC3)cc2NC(=O)c2cnn3cccnc23)nc1 (stereo partly drawn) [Example 273, N-[3-{1-[(3R)-3-methylcyclopentyl]piperidin-4-yl}-1-(5-methylpyridin-2-yl)-1H-pyrazol-5-yl]pyrazolo[1,5-a]pyrimidine-3-carboxamide]
19 | – | > 1 | Cc1ccc(-n2nc(C3(C)CC3)cc2NC(=O)c2cnn3cccnc23)nc1 [Example 181, N-(3-(1-methylcyclopropyl)-1-(5-methylpyridin-2-yl)-1H-pyrazol-5-yl)pyrazolo[1,5-a]pyrimidine-3-carboxamide]
20 | < 0.1 | – | Cc1ccc(-n2nc(N3CCN(C4CCC4)CC3)cc2NC(=O)c2cnn3cccnc23)nc1 [Example 320, N-[3-(4-cyclobutylpiperazin-1-yl)-1-(5-methylpyridin-2-yl)-1H-pyrazol-5-yl]pyrazolo[1,5-a]pyrimidine-3-carboxamide]
21 | < 0.1 | – | CS(=O)(=O)N1CCC(c2cc(NC(=O)c3cnn4cccnc34)n(-c3ccc(C=O)cn3)n2)CC1 [Example 165, N-(1-(5-formylpyridine-2-yl)-3-(1-(methylsulfonyl)piperidin-4-yl)-1H-pyrazol-5-yl)pyrazolo[1,5-a]pyrimidine-3-carboxamide]
22 | < 0.1 | – | Cc1ccc(-n2nc(N3CCN(CC(C)C)CC3)cc2NC(=O)c2cnn3cccnc23)nc1 [Example 324, N-{3-[4-(2-methylpropyl)piperazin-1-yl]-1-(5-methylpyridin-2-yl)-1H-pyrazol-5-yl}pyrazolo[1,5-a]pyrimidine-3-carboxamide]
23 | < 0.1 | – | Cc1ccc(-n2nc(C3CN(Cc4cn[nH]c4)C3)cc2NC(=O)c2cnn3cccnc23)cc1 [Example 305, N-{1-(4-methylphenyl)-3-[1-(1H-pyrazol-4-ylmethyl)azetidin-3-yl]-1H-pyrazol-5-yl}pyrazolo[1,5-a]pyrimidine-3-carboxamide]
24 | – | < 1 | Cc1ccc(-n2nc(C3CN(S(C)(=O)=O)C3)cc2NC(=O)c2cnn3cccnc23)cc1 [Example 83, N-(3-(1-(methylsulfonyl)azetidin-3-yl)-1-(p-tolyl)-1H-pyrazol-5-yl)pyrazolo[1,5-a]pyrimidine-3-carboxamide]
25 | < 0.1 | – | Cc1ccc(-n2nc(C3CCN(C4CCc5ccncc5C4)CC3)cc2NC(=O)c2cnn3cccnc23)nc1 (centres unmarked) [Example 268, N-{1-(5-methylpyridin-2-yl)-3-[1-(5,6,7,8-tetrahydroisoquinolin-7-yl)piperidin-4-yl]-1H-pyrazol-5-yl}pyrazolo[1,5-a]pyrimidine-3-carboxamide]
26 | – | > 1 | Cc1ccc(-n2nc(C3CCNCC3)cc2NC(=O)c2cnn3cccnc23)cn1 [Example 167, N-(1-(6-methylpyridin-3-yl)-3-(piperidin-4-yl)-1H-pyrazol-5-yl)pyrazolo[1,5-a]pyrimidine-3-carboxamide]
27 | < 0.1 | – | COc1ncccc1CN1CC(c2cc(NC(=O)c3cnn4cccnc34)n(-c3ccc(C)cc3)n2)C1 [Example 313, N-[3-{1-[(2-methoxypyridin-3-yl)methyl]azetidin-3-yl}-1-(4-methylphenyl)-1H-pyrazol-5-yl]pyrazolo[1,5-a]pyrimidine-3-carboxamide]
28 | < 0.1 | – | COCC(C)N1CCC(c2cc(NC(=O)c3cnn4cccnc34)n(-c3ccc(C)cc3)n2)CC1 (centres unmarked) [Example 211, N-(3-(1-(1-methoxypropan-2-yl)piperidin-4-yl)-1-(p-tolyl)-1H-pyrazol-5-yl)pyrazolo[1,5-a]pyrimidine-3-carboxamide]
29 | < 0.1 | – | Cc1ccc(-n2nc(C3CCN(C4CC(N(C)C)C4)CC3)cc2NC(=O)c2cnn3cccnc23)nc1 (centres unmarked) [Example 269, N-[3-{1-[3-(dimethylamino)cyclobutyl]piperidin-4-yl}-1-(5-methylpyridin-2-yl)-1H-pyrazol-5-yl]pyrazolo[1,5-a]pyrimidine-3-carboxamide]
30 | < 0.1 | – | Cc1ccc(-n2nc(-c3ccncc3)cc2NC(=O)c2cnn3cccnc23)cc1 [Example 125, N-(3-(pyridin-4-yl)-1-(p-tolyl)-1H-pyrazol-5-yl)pyrazolo[1,5-a]pyrimidine-3-carboxamide]
31 | – | < 1 | Cc1ccc(-n2nc(C3CCNC3)cc2NC(=O)c2cnn3cccnc23)cc1 (centres unmarked) [Example 80, N-(3-(pyrrolidin-3-yl)-1-(p-tolyl)-1H-pyrazol-5-yl)pyrazolo[1,5-a]pyrimidine-3-carboxamide]
32 | – | < 1 | CCCS(=O)(=O)N1CCC(c2cc(NC(=O)c3cnn4cccnc34)n(-c3ccc(C)cc3)n2)CC1 [Example 361, N-{1-(4-methylphenyl)-3-[1-(propylsulfonyl)piperidin-4-yl]-1H-pyrazol-5-yl}pyrazolo[1,5-a]pyrimidine-3-carboxamide]
